{"source": "ChEMBL document CHEMBL1126089", "about": "“2-Alkynyl derivatives of adenosine and adenosine-5'-N-ethyluronamide as selective agonists at A2 adenosine receptors” (J Med Chem, 1992)", "key": {"Adenosine A2 receptor [1]": {"molecular_target": "T1, Adenosine A2 receptor (Homo sapiens, UniProt P29275+P29274)", "test": "Maximal NECA stimulation of adenylate cyclase via adenosine A2 receptor in human platelet membranes", "format": "cell membranes"}, "Adenosine A2 receptor [2]": {"molecular_target": "T1, Adenosine A2 receptor"}, "Adenosine A2 receptor [3]": {"molecular_target": "T1, Adenosine A2 receptor", "test": "Agonistic activity at adenosine A2 receptor", "format": "functional"}, "[4]": {"test": "Selectivity as ratio of IC50 for A1 adenosine receptor compared to EC50 for A2 adenosine receptor"}, "Adenosine receptor A1 [5]": {"molecular_target": "T2, Adenosine receptor A1 (Rattus norvegicus, UniProt P25099)", "T2 sequence (P25099 whole entry)": "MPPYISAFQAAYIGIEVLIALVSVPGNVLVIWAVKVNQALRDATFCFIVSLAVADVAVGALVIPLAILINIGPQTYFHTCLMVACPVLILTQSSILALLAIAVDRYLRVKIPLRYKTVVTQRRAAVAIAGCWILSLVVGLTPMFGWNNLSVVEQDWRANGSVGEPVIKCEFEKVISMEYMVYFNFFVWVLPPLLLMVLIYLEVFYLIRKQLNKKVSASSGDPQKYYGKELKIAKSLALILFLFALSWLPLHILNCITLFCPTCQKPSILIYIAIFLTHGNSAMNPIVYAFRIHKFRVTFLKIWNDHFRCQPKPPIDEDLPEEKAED", "description": "Binding affinity against high affinity component of adenosine A1 receptors from rat brain membranes using [3H]DPCPX"}, "Adenosine receptor A1 [6]": {"molecular_target": "T2, Adenosine receptor A1", "remark": "listed apart in the source", "description": "Binding affinity against adenosine A1 receptors from rat brain membranes using [3H]CCPA"}, "Adenosine receptor A1 [7]": {"molecular_target": "T2, Adenosine receptor A1", "test": "Inhibition of adenylate cyclase via adenosine A1 receptors in rat fat cell membranes", "format": "functional, Membrane"}, "Adenosine A2 receptor [8]": {"molecular_target": "T3, Adenosine A2 receptor (Rattus norvegicus, UniProt P29276+P30543)"}, "Adenosine receptor A1 [9]": {"molecular_target": "T2, Adenosine receptor A1", "remark": "listed apart in the source", "description": "Binding affinity against low affinity component of adenosine A1 receptors from rat brain membranes using [3H]-DPCPX"}, "Adenosine receptor A1 [10]": {"molecular_target": "T2, Adenosine receptor A1", "test": "Binding affinity against Adenosine A1 receptor from rat brain membranes using [3H]CCPA"}, "Adenosine receptor A1 [11]": {"molecular_target": "T2, Adenosine receptor A1", "test": "Binding affinity against low affinity component of Adenosine A1 receptor from rat brain membranes using [3H]DPCPX", "format": "cell membranes, Membrane"}, "Adenosine A2 receptor [12]": {"molecular_target": "T1, Adenosine A2 receptor", "test": "Agonistic activity at Adenosine A2 receptor", "format": "functional"}, "Adenosine A2 receptor [13]": {"molecular_target": "T1, Adenosine A2 receptor", "test": "Maximal NECA stimulation of adenylate cyclase via A2 receptors in human platelet membranes", "format": "cell membranes"}, "Adenosine A2 receptor [14]": {"molecular_target": "T1, Adenosine A2 receptor", "test": "Binding affinity against A2 adenosine receptors from human platelet membranes using [3H]NECA"}, "Adenosine A2 receptor [15]": {"molecular_target": "T3, Adenosine A2 receptor", "test": "Binding affinity against Adenosine A2 receptor from rat striatal membrane with 50 nM CPA using [3H]NECA"}, "Adenosine receptor A1 [16]": {"molecular_target": "T2, Adenosine receptor A1", "test": "Binding affinity against high affinity component of Adenosine A1 receptor from rat brain membranes using [3H]-DPCPX", "format": "cell membranes, Membrane"}, "Adenosine A2 receptor [17]": {"molecular_target": "T1, Adenosine A2 receptor", "test": "Maximal NECA stimulation of adenylate cyclase via Adenosine A2 receptor in human platelet membranes", "format": "cell membranes"}, "Adenosine receptor A1 [18]": {"molecular_target": "T2, Adenosine receptor A1", "test": "Binding affinity against A1 adenosine receptors from rat brain membranes using [3H]CCPA"}, "Adenosine receptor A1 [19]": {"molecular_target": "T2, Adenosine receptor A1", "test": "Inhibition of adenylate cyclase via A1 receptors in rat fat cell membranes", "format": "functional, Membrane"}, "Adenosine A2 receptor [20]": {"molecular_target": "T1, Adenosine A2 receptor", "test": "Maximal NECA stimulation of adenylate cyclase via Adenosine A2 receptor in human platelet membranes.", "format": "cell membranes"}, "[21]": {"molecular_target": "Adenosine A2a receptor (Rattus norvegicus) (UniProt P30543)", "sequence (P30543 whole entry, looked up)": "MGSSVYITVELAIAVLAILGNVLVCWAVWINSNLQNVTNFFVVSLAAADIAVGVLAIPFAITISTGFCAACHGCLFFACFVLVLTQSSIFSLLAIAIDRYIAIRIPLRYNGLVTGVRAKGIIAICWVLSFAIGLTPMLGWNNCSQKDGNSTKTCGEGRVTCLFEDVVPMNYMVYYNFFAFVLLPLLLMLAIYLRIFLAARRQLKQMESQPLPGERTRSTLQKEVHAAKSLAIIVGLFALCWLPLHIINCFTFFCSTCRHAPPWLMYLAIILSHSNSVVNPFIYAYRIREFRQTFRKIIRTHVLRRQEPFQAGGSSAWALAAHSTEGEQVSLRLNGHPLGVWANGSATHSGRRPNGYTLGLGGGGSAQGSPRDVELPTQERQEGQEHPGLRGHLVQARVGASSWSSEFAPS", "test": "Binding affinity against Adenosine A2 receptor from rat striatal membranes with 50 nM CPA using [3H]-NECA"}, "Adenosine A2 receptor [22]": {"molecular_target": "T1, Adenosine A2 receptor", "test": "Binding affinity against Adenosine A2 receptor from human platelet membranes using [3H]NECA"}, "Adenosine receptor A1 [23]": {"molecular_target": "T2, Adenosine receptor A1", "test": "Inhibition of adenylate cyclase via Adenosine A1 receptor in rat fat cell membranes", "format": "functional, Membrane"}, "[24]": {"molecular_target": "Adenosine A2 receptor (Rattus norvegicus) (UniProt P29276+P30543)", "test": "Binding affinity against Adenosine A2 receptor from rat striatal membranes with 50 nM CPA using [3H]NECA"}, "Adenosine A2 receptor [25]": {"molecular_target": "T3, Adenosine A2 receptor", "test": "Binding affinity against A2 adenosine receptors from rat striatal membranes with 50 nM CPA using [3H]NECA"}}, "data": [{"smiles": "CCCCCC#Cc1nc(N)c2ncn([C@@H]3O[C@H](CO)[C@@H](O)[C@H]3O)c2n1", "values": [{"measurement": "EC50", "setting": "Adenosine A2 receptor [1]", "value": 0.414, "unit": "µM"}, {"measurement": "Ki", "setting": "Adenosine A2 receptor [2]", "value": 0.0208, "unit": "µM"}, {"measurement": "Emax", "setting": "Adenosine A2 receptor [3]", "value": 65, "unit": "%"}, {"measurement": "A2 selectivity", "setting": "[4]", "value": 8}, {"measurement": "Ki", "setting": "Adenosine receptor A1 [5]", "value": 0.0322, "unit": "µM"}, {"measurement": "Ki", "setting": "Adenosine receptor A1 [6]", "value": 0.0284, "unit": "µM"}, {"measurement": "IC50", "setting": "Adenosine receptor A1 [7]", "value": 3.38, "unit": "µM"}, {"measurement": "Ki", "setting": "Adenosine A2 receptor [8]", "value": 0.0028, "unit": "µM"}, {"measurement": "Ki", "setting": "Adenosine receptor A1 [9]", "value": 1.22, "unit": "µM"}]}, {"smiles": "CCCCC#Cc1nc(N)c2ncn([C@@H]3O[C@H](CO)[C@@H](O)[C@H]3O)c2n1", "values": [{"measurement": "Emax", "setting": "Adenosine A2 receptor [3]", "value": 65, "unit": "%"}, {"measurement": "Ki", "setting": "Adenosine receptor A1 [5]", "value": 0.0125, "unit": "µM"}, {"measurement": "Ki", "setting": "Adenosine receptor A1 [6]", "value": 0.0159, "unit": "µM"}, {"measurement": "IC50", "setting": "Adenosine receptor A1 [7]", "value": 2.3, "unit": "µM"}, {"measurement": "Ki", "setting": "Adenosine receptor A1 [9]", "value": 0.633, "unit": "µM"}]}, {"smiles": "CCCCCCC#Cc1nc(N)c2ncn(C3O[C@H](C(=O)NCC)[C@@H](O)[C@H]3O)c2n1", "note": "(some centres undefined)", "values": [{"measurement": "Ki", "setting": "Adenosine receptor A1 [10]", "value": 0.0644, "unit": "µM"}, {"measurement": "A2 selectivity", "setting": "[4]", "value": 23}, {"measurement": "Ki", "setting": "Adenosine receptor A1 [11]", "value": 2.94, "unit": "µM"}, {"measurement": "Emax", "setting": "Adenosine A2 receptor [12]", "value": 100, "unit": "%"}, {"measurement": "EC50", "setting": "Adenosine A2 receptor [13]", "value": 0.585, "unit": "µM"}, {"measurement": "Ki", "setting": "Adenosine A2 receptor [14]", "value": 0.159, "unit": "µM"}, {"measurement": "Ki", "setting": "Adenosine A2 receptor [15]", "value": 0.0148, "unit": "µM"}, {"measurement": "Ki", "setting": "Adenosine receptor A1 [16]", "value": 0.067, "unit": "µM"}, {"measurement": "EC50", "setting": "Adenosine A2 receptor [17]", "value": 13.5, "unit": "µM"}]}, {"smiles": "CCCCCCC#Cc1nc(N)c2ncn([C@@H]3O[C@H](CO)[C@@H](O)[C@H]3O)c2n1", "values": [{"measurement": "EC50", "setting": "Adenosine A2 receptor [1]", "value": 0.681, "unit": "µM"}, {"measurement": "Ki", "setting": "Adenosine A2 receptor [2]", "value": 0.0399, "unit": "µM"}, {"measurement": "Emax", "setting": "Adenosine A2 receptor [3]", "value": 65, "unit": "%"}, {"measurement": "A2 selectivity", "setting": "[4]", "value": 4}, {"measurement": "Ki", "setting": "Adenosine receptor A1 [5]", "value": 0.0196, "unit": "µM"}, {"measurement": "Ki", "setting": "Adenosine receptor A1 [6]", "value": 0.0252, "unit": "µM"}, {"measurement": "IC50", "setting": "Adenosine receptor A1 [7]", "value": 2.91, "unit": "µM"}, {"measurement": "Ki", "setting": "Adenosine A2 receptor [8]", "value": 0.0063, "unit": "µM"}, {"measurement": "Ki", "setting": "Adenosine receptor A1 [9]", "value": 0.823, "unit": "µM"}]}, {"smiles": "CCCC#Cc1nc(N)c2ncn([C@@H]3O[C@H](C(=O)NCC)[C@@H](O)[C@H]3O)c2n1", "values": [{"measurement": "Ki", "setting": "Adenosine receptor A1 [18]", "value": 0.0408, "unit": "µM"}, {"measurement": "IC50", "setting": "Adenosine receptor A1 [19]", "value": 2.7, "unit": "µM"}, {"measurement": "A2 selectivity", "setting": "[4]", "value": 44}, {"measurement": "EC50", "setting": "Adenosine A2 receptor [20]", "value": 0.0195, "unit": "µM"}, {"measurement": "Emax", "setting": "Adenosine A2 receptor [12]", "value": 100, "unit": "%"}, {"measurement": "EC50", "setting": "[21]", "value": 0.062, "unit": "µM"}, {"measurement": "Ki", "setting": "Adenosine A2 receptor [22]", "value": 0.0126, "unit": "µM"}, {"measurement": "Ki", "setting": "Adenosine receptor A1 [16]", "value": 0.033, "unit": "µM"}, {"measurement": "IC50", "setting": "Adenosine receptor A1 [23]", "value": 1.62, "unit": "µM"}, {"measurement": "A2 selectivity", "setting": "[24]", "value": 2}]}, {"smiles": "CCCC#Cc1nc(N)c2ncn([C@@H]3O[C@H](CO)[C@@H](O)[C@H]3O)c2n1", "values": [{"measurement": "EC50", "setting": "Adenosine A2 receptor [1]", "value": 0.127, "unit": "µM"}, {"measurement": "Ki", "setting": "Adenosine A2 receptor [2]", "value": 0.0073, "unit": "µM"}, {"measurement": "Emax", "setting": "Adenosine A2 receptor [3]", "value": 65, "unit": "%"}, {"measurement": "A2 selectivity", "setting": "[4]", "value": 24}, {"measurement": "Ki", "setting": "Adenosine receptor A1 [5]", "value": 0.016, "unit": "µM"}, {"measurement": "Ki", "setting": "Adenosine receptor A1 [6]", "value": 0.0215, "unit": "µM"}, {"measurement": "IC50", "setting": "Adenosine receptor A1 [7]", "value": 3, "unit": "µM"}, {"measurement": "Ki", "setting": "Adenosine A2 receptor [8]", "value": 0.0164, "unit": "µM"}, {"measurement": "Ki", "setting": "Adenosine receptor A1 [9]", "value": 0.849, "unit": "µM"}]}, {"smiles": "CCCCCC#Cc1nc(N)c2ncn(C3O[C@H](C(=O)NCC)[C@@H](O)[C@H]3O)c2n1", "note": "(some centres undefined)", "values": [{"measurement": "Ki", "setting": "Adenosine receptor A1 [10]", "value": 0.089, "unit": "µM"}, {"measurement": "A2 selectivity", "setting": "[4]", "value": 34}, {"measurement": "Ki", "setting": "Adenosine receptor A1 [11]", "value": 2.91, "unit": "µM"}, {"measurement": "Emax", "setting": "Adenosine A2 receptor [12]", "value": 100, "unit": "%"}, {"measurement": "EC50", "setting": "Adenosine A2 receptor [13]", "value": 0.388, "unit": "µM"}, {"measurement": "Ki", "setting": "Adenosine receptor A1 [16]", "value": 0.171, "unit": "µM"}, {"measurement": "Ki", "setting": "Adenosine A2 receptor [25]", "value": 0.0047, "unit": "µM"}, {"measurement": "IC50", "setting": "Adenosine receptor A1 [23]", "value": 13.1, "unit": "µM"}, {"measurement": "EC50", "setting": "Adenosine A2 receptor [17]", "value": 0.0371, "unit": "µM"}]}, {"smiles": "CCCCC#Cc1nc(N)c2ncn([C@@H]3O[C@H](C(=O)NCC)[C@@H](O)[C@H]3O)c2n1", "values": [{"measurement": "EC50", "setting": "Adenosine A2 receptor [1]", "value": 0.105, "unit": "µM"}, {"measurement": "Ki", "setting": "Adenosine A2 receptor [2]", "value": 0.0057, "unit": "µM"}, {"measurement": "Emax", "setting": "Adenosine A2 receptor [3]", "value": 100, "unit": "%"}, {"measurement": "A2 selectivity", "setting": "[4]", "value": 42}, {"measurement": "Ki", "setting": "Adenosine receptor A1 [5]", "value": 0.136, "unit": "µM"}, {"measurement": "Ki", "setting": "Adenosine receptor A1 [6]", "value": 0.0439, "unit": "µM"}, {"measurement": "IC50", "setting": "Adenosine receptor A1 [7]", "value": 4.38, "unit": "µM"}, {"measurement": "Ki", "setting": "Adenosine A2 receptor [8]", "value": 0.0038, "unit": "µM"}, {"measurement": "Ki", "setting": "Adenosine receptor A1 [9]", "value": 3.16, "unit": "µM"}]}]}
